Values of other authors, collected in US9114169B2, “Sweetening and healthy compositions and methods associated therewith” (priority 2013, dated 2015).

Columns and labels:
[1] = compared with resveratrol
[2] = fold longer than resveratrol
[3] = fold greater than resveratrol
[4] = compared with resveratrol; remark: listed apart in the source

- metabolic stability relative to resveratrol [1]: greater
- half-life in the human body relative to resveratrol [2]: seven
- cellular uptake relative to resveratrol [3]: 2-4 times
- absorption relative to resveratrol [4]: greater absorption
Structure (SMILES): COc1cc(/C=C/c2ccc(O)cc2)cc(OC)c1 [Pterostilbene, pterostilbene]
